{
  "source": "patent US20240342318A1",
  "about": "“CONJUGATES COMPRISING COVALENT BINDERS FOR TARGETING INTRACELLULAR PROTEINS” (RayzeBio, Inc., priority 2021, published 2024)",
  "key": {"EGFR (L858R, T790M)": {"target": "T1, EGFR (L858R, T790M) (Homo sapiens, UniProt P00533, L858R/T790M)", "T1 construct": "The EGFR constructs span amino acids R669 to V1011 of the EGFR protein; T7 phage display fusion (kinase-tagged T7 phage) or DNA tag for qPCR; made in house; host or cells: E. coli (BL21-derived) infected with T7 phage for most assays; remaining kinases in HEK-293", "T1 sequence (P00533 669-1011 T790M/L858R)": "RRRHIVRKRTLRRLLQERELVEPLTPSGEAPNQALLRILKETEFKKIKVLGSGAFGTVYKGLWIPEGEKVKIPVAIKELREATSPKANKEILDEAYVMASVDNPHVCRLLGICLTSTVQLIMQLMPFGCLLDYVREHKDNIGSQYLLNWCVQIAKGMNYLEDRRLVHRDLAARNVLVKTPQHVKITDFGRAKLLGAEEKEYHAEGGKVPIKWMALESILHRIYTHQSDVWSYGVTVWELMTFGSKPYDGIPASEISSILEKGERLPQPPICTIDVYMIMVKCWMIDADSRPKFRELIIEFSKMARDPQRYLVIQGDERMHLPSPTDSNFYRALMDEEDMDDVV", "assay": "In vitro kinase binding assay (phage/DNA-tagged kinase, affinity beads, qPCR), mutant EGFR", "method": "(§1) For most assays, kinase-tagged T7 phage strains were prepared in an E. coli host derived from the BL21 strain. For the EGFR assays, wild-type EGFR, or mutant EGFR (T790M, L858R) were utilized. The EGFR constructs span amino acids R669 to V1011 of the EGFR protein. E. coli were grown to log-phase and infected with T7 phage and incubated with shaking at 32° C. until lysis. The lysates were centrifuged and filtered to remove cell debris. The remaining kinases were produced in HEK-293 cells and subsequently tagged with DNA for qPCR detection. Streptavidin-coated magnetic beads were treated with biotinylated small molecule ligands for 30 minutes at room temperature to generate affinity resins for kinase assays. The liganded beads were blocked with excess biotin and washed with blocking buffer (SeaBlock (Pierce), 1% BSA, 0.05% Tween 20, 1 mM DTT) to remove unbound ligand and to reduce non-specific binding. Binding reactions were assembled by combining kinases, liganded affinity beads, and test compounds in 1× binding buffer (20% SeaBlock, 0.17×PBS, 0.05% Tween 20, 6 mM DTT). Test compounds were prepared as 111× stocks in 100% DMSO. Kds were determined using an 11-point 3-fold compound dilution series with three DMSO control points. All compounds for Kd measurements are distributed by acoustic transfer (non-contact dispensing) in 100% DMSO. The compounds were then diluted directly into the assays such that the final concentration of DMSO was 0.9%. All reactions performed in polypropylene 384-well plate. Each was a final volume of 0.02 ml. The assay plates were incubated at room temperature with shaking for 1 hour and the affinity beads were washed with wash buffer (lx PBS, 0.05% Tween 20). The beads were then re-suspended in elution buffer (lx PBS, 0.05% Tween 20, 0.5 μM nonbiotinylated affinity ligand) and incubated at room temperature with shaking for 30 minutes. The kinase concentration in the eluates was measured by qPCR."}, "EGFR (WT)": {"target": "T2, EGFR (WT) (Homo sapiens, UniProt P00533)", "T2 construct": "The EGFR constructs span amino acids R669 to V1011 of the EGFR protein; T7 phage display fusion (kinase-tagged T7 phage) or DNA tag for qPCR; made in house; host or cells: E. coli (BL21-derived) infected with T7 phage for most assays; remaining kinases in HEK-293", "T2 sequence (P00533 669-1011)": "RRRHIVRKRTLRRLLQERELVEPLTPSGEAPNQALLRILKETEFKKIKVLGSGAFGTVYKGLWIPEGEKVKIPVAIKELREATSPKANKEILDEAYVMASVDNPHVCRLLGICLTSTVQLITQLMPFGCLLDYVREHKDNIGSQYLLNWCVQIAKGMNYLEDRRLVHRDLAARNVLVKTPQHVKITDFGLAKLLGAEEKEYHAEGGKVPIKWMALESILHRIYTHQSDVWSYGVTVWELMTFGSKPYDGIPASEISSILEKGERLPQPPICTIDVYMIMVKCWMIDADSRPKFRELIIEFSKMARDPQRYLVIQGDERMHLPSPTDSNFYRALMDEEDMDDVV", "assay": "In vitro kinase binding assay (phage/DNA-tagged kinase, affinity beads, qPCR), wild-type EGFR", "method": "as §1"}},
  "data": [
    {"compound": "C=CC(=O)N1C[C@H](COc2nc(Nc3cnn(CCCCCNC(=O)CN4CCN5CCN6CCN(CC4)CC(=O)[O][Lu]([O]C(=O)C5)[O]C(=O)C6)c3)nc3[nH]cc(Cl)c23)[C@@H](OC)C1", "note": "[Compound 007-Lu, N-[5-[4-[[5-chloro-4-[[(3R,4R)-4-methoxy-1-prop-2-enoyl-pyrrolidin-3-yl]methoxy]-7H-pyrrolo [2,3-d]pyrimidin-2-yl]amino]pyrazol-1-yl]pentyl]-2-(3,16,19-trioxo-2,17,18-trioxa-5,8,11,14-tetraza-1λ3-lutetatricyclo[9.6.3.25,14]docosan-8-yl)acetamide]", "values": [
      {"measurement": "Kd", "setting": "EGFR (L858R, T790M)", "value": "< 1", "unit": "nM"},
      {"measurement": "Binding Affinity ratio of WT/DM", "setting": "EGFR (L858R, T790M); ratio of Kd EGFR (WT) to Kd EGFR (L858R, T790M)", "value": "C (100 < C ≤ 1000)"},
      {"measurement": "Kd", "setting": "EGFR (WT)", "value": "100 to 1000", "unit": "nM"}
    ]}
  ]
}
